In ChEMBL document CHEMBL1201862, “PubChem BioAssay data set” (2004):
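Each compound was tested at five concentrations against cells in 96-well plates for 48 hours. GI50 marks 50% less growth.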 Calls of active or inactive are those of the source. Rule as the data show it: active = GI50 up to about 1.1 µM and inactive = higher.

How the values were obtained:
Assay in all cases: NCI tumour cell line growth inhibition, 48 h
[1] = test system: SF-268
[2] = test system: SNB-19
[3] = test system: SNB-75
[4] = test system: NCI-H226
[5] = test system: SK-MEL-2
[6] = test system: OVCAR-3
[7] = test system: LOX IMVI
[8] = test system: U-251
[9] = test system: EKVX
[10] = test system: T47D
[11] = test system: MDA-MB-435
[12] = test system: HOP-62
[13] = test system: IGROV-1
[14] = test system: TK-10
[15] = test system: SN12C
[16] = test system: A498
[17] = test system: OVCAR-5
[18] = test system: HCC 2998
[19] = test system: CCRF-CEM

Compound | GI50 [1] | GI50 [2] | GI50 [3] | GI50 [4] | GI50 [5] | GI50 [6] | GI50 [7] | GI50 [8] | GI50 [9] | GI50 [10] | GI50 [11] | GI50 [12] | GI50 [13] | GI50 [14] | GI50 [15] | GI50 [16] | GI50 [17] | GI50 [18] | GI50 [19]
NNC(=O)CNc1cccc(Br)c1 | > 100 µM (inactive) | > 100 µM (inactive) | > 100 µM (inactive) | > 100 µM (inactive) | > 100 µM (inactive) | > 100 µM (inactive) | > 100 µM (inactive) | > 100 µM (inactive) | > 100 µM (inactive) | > 100 µM (inactive) | > 100 µM (inactive) | > 100 µM (inactive) | > 100 µM (inactive) | > 100 µM (inactive) | > 100 µM (inactive) | > 100 µM (inactive) | > 100 µM (inactive) | > 100 µM (inactive) | –
Cc1ccc(S(=O)(=O)N2CCCSCCN(S(=O)(=O)c3ccc(C)cc3)CCCSCC2)cc1 | > 100 µM (inactive) | > 100 µM (inactive) | > 100 µM (inactive) | > 100 µM (inactive) | > 100 µM (inactive) | > 100 µM (inactive) | – | > 100 µM (inactive) | > 100 µM (inactive) | 17.5 µM (inactive) | > 100 µM (inactive) | > 100 µM (inactive) | > 100 µM (inactive) | > 100 µM (inactive) | > 100 µM (inactive) | > 100 µM (inactive) | > 100 µM (inactive) | 89.5 µM (inactive) | –
CCCCCCCCCCCCOC1C(COCCN2CCCCC2)OC2OC(C)(C)OC21 (stereo unspecified) | 2.67 µM (inactive) | 2.5 µM (inactive) | – | 3.99 µM (inactive) | 1.73 µM (inactive) | 2.5 µM (inactive) | 1.55 µM (inactive) | 2.02 µM (inactive) | – | 1.94 µM (inactive) | 1.76 µM (inactive) | 1.84 µM (inactive) | 1.83 µM (inactive) | 1.83 µM (inactive) | 2.21 µM (inactive) | 14.8 µM (inactive) | 1.85 µM (inactive) | 1.64 µM (inactive) | 1.1 µM (active)
COC(=O)c1c(C(=O)OC)c2ccc(-c3ccc(Cl)cc3)nn2c1C(=O)c1ccc([N+](=O)[O-])cc1 | 44.7 µM (inactive) | > 100 µM (inactive) | – | > 100 µM (inactive) | 34.8 µM (inactive) | 43.5 µM (inactive) | 39 µM (inactive) | > 100 µM (inactive) | 27.4 µM (inactive) | 27.9 µM (inactive) | 50.1 µM (inactive) | > 100 µM (inactive) | – | 28.1 µM (inactive) | > 100 µM (inactive) | > 100 µM (inactive) | > 100 µM (inactive) | > 100 µM (inactive) | 17.1 µM (inactive)
NCC(O)CSP(=O)(O)O (stereo unspecified) | > 100 µM (inactive) | > 100 µM (inactive) | > 100 µM (inactive) | > 100 µM (inactive) | > 100 µM (inactive) | > 100 µM (inactive) | > 100 µM (inactive) | > 100 µM (inactive) | > 100 µM (inactive) | > 100 µM (inactive) | > 100 µM (inactive) | > 100 µM (inactive) | > 100 µM (inactive) | > 100 µM (inactive) | > 100 µM (inactive) | > 100 µM (inactive) | > 100 µM (inactive) | – | > 100 µM (inactive)
CS(=O)(=O)c1ccc(/C=N/NC(N)=S)cc1 | > 100 µM (inactive) | > 100 µM (inactive) | > 100 µM (inactive) | > 100 µM (inactive) | – | > 100 µM (inactive) | > 100 µM (inactive) | > 100 µM (inactive) | > 100 µM (inactive) | > 100 µM (inactive) | > 100 µM (inactive) | > 100 µM (inactive) | > 100 µM (inactive) | > 100 µM (inactive) | > 100 µM (inactive) | > 100 µM (inactive) | > 100 µM (inactive) | > 100 µM (inactive) | –
O=C(Nc1nn(C(=O)c2ccc(Cl)cc2)c(=O)s1)c1ccc(Cl)cc1 | > 100 µM (inactive) | > 100 µM (inactive) | – | > 100 µM (inactive) | – | > 100 µM (inactive) | > 100 µM (inactive) | > 100 µM (inactive) | 94.8 µM (inactive) | > 100 µM (inactive) | > 100 µM (inactive) | > 100 µM (inactive) | > 100 µM (inactive) | > 100 µM (inactive) | > 100 µM (inactive) | > 100 µM (inactive) | > 100 µM (inactive) | > 100 µM (inactive) | 76.4 µM (inactive)
